Laboratory results reported in patent US10730864B2, “RAD51 inhibitors and uses thereof” (THE REGENTS OF THE UNIVERSITY OF CALIFORNIA, priority 2015, dated 2020).
Read-outs that look alike come from different tables or passages of the source.

System: triple-negative human breast cancer cell line MDA-MB-468
Experiment: XTT cell killing / growth inhibition assay, MDA-MB-468
Assay type: cell-based
Experimental: Standard XTT assays with a four-day drug treatment procedure were performed to measure the dose dependent cytotoxicity of IBR analogs in cultured cells. In brief, cells were plated on 96-well dishes one day before the drug treatment, followed by drug treatment on day 2 and XTT assay on day 6 after drug addition by using a commercial cell proliferation kit (Roche Scientific) following the instructions.
Triplicate sets were measured and compiled for final data presentation.
To test the possibility of inhibiting triple-negative breast cancer, the newly synthesized IBR2 analogues IBR101-124 were screened of their growth inhibition abilities using an XTT assay.

[1] = MDA-MB-468, XTT assay, four-day drug treatment, read-out: IC50
[2] = growth inhibition, raw dataset for SAR analysis
[3] = Homo sapiens, 96 h, MDA-MB-468, XTT assay, four-day drug treatment, read-out: IC50
[4] = Homo sapiens, MDA-MB-468, growth inhibition, raw dataset for SAR analysis, read-out: pIC50 (converted)

Compound	IC50 compared with that of the parental compound IBR2 (in words) (MDA-MB-468)	IC50 [1] [µM]	pIC50 [2]	growth inhibition activity (in words) (MDA-MB-468, XTT assay)	IC50 [3] [µM]	IC50 [4] [µM]
O=S(=O)(Cc1ccccc1)N1CCc2ccccc2[C@@H]1c1c[nH]c2ccccc12 [IBR101]	slightly lower	11.7	4.93	–	–	–
O=S(=O)(Cc1ccccc1)N1CC=Cc2ccccc2[C@@H]1c1c[nH]c2ccccc12 [IBR115]	slightly lower	14.7	4.83	minimal change of activity	–	–
COc1cc2c(C3c4ccccc4C=CN3S(=O)(=O)Cc3ccccc3)c[nH]c2cn1 (centres unmarked) [IBR122]	slightly lower	12.7	4.90	–	–	–
O=S(=O)(Cc1ccccc1)N1CCc2ccccc2[C@H]1c1n[nH]c2ccccc12 [IBR118, (S)-1-(1H-Indazol-3-yl)-2-phenylmethanesulfonyl-1,2,3,4-tetrahydro-isoquinoline]	slightly lower	–	–	–	14.3	14.5
Nc1ncc([C@@H]2c3ccccc3CCN2S(=O)(=O)Cc2ccccc2)s1 [IBR119, 5-((S)-2-Phenylmethanesulfonyl-1,2,3,4-tetrahydro-isoquinolin-1-yl)thiazol-2-ylamine]	–	–	–	–	> 25	≥ 25.1
O=S(=O)(Cc1cccc(F)c1)N1CCc2ccccc2[C@@H]1c1c[nH]c2ccccc12 [IBR105]	slightly lower	14.2	4.85	–	–	–
O=S(=O)(Cc1ccc(F)cc1)N1CCc2ccccc2[C@@H]1c1c[nH]c2ccccc12 [IBR107]	slightly lower	11.2	4.95	–	–	–
O=S(=O)(Cc1ccccc1)N1Cc2ccccc2[C@H]1c1c[nH]c2ccccc12 [IBR121, (S)-3-(2-(benzylsulfonyl)isoindolin-1-yl)-1H-indole]	–	–	–	–	> 12	≥ 12
O=S(=O)(Cc1ccccc1)N1CC=Cc2ccccc2[C@H]1c1c[nH]c2ccccc12 [IBR116]	–	> 50	≤ 4.30	almost complete loss of function	–	–
O=S(=O)(Cc1ccccc1)N1CCc2ccccc2[C@@H]1c1n[nH]c2ccccc12 [IBR117, (R)-1-(1H-Indazol-3-yl)-2-phenylmethanesulfonyl-1,2,3,4-tetrahydro-isoquinoline]	significantly lower	–	–	–	9.5	9.55
O=S(=O)(Cc1ccc(F)cc1)N1CCc2ccccc2[C@H]1c1c[nH]c2ccccc12 [IBR108]	–	25.7	4.59	–	–	–
O=S(=O)(Cc1ccccc1)N1C=Cc2ccccc2C1c1c[nH]c2ncccc12 (centres unmarked) [IBR124]	significantly lower	6.2	5.21	–	–	–
O=S(=O)(Cc1cccc(C(F)(F)F)c1)N1CCc2ccccc2[C@@H]1c1c[nH]c2ccccc12 [IBR111]	slightly lower	11.1	4.95	–	–	–
O=S(=O)(Cc1ccccc1F)N1CCc2ccccc2[C@@H]1c1c[nH]c2ccccc12 [IBR103]	slightly lower	12.7	4.90	–	–	–
O=S(=O)(Cc1cccc(C(F)(F)F)c1)N1CCc2ccccc2[C@H]1c1c[nH]c2ccccc12 [IBR112]	–	22.2	4.65	–	–	–
O=S(=O)(Cc1ccc(C(F)(F)F)cc1)N1CCc2ccccc2[C@@H]1c1c[nH]c2ccccc12 [IBR113]	slightly lower	13.6	4.87	–	–	–
O=S(=O)(Cc1ccccc1C(F)(F)F)N1CCc2ccccc2[C@H]1c1c[nH]c2ccccc12 [IBR110]	–	16.7	4.78	–	–	–
O=S(=O)(Cc1ccc(C(F)(F)F)cc1)N1CCc2ccccc2[C@H]1c1c[nH]c2ccccc12 [IBR114]	–	20.7	4.68	–	–	–
O=S(=O)(Cc1ccccc1)N1CCc2ccccc2[C@H]1c1c[nH]c2ccccc12 [IBR102]	slightly lower	13.2	4.88	–	–	–
COc1nccc2c(C3c4ccccc4C=CN3S(=O)(=O)Cc3ccccc3)c[nH]c12 (racemic) [IBR123]	significantly lower	6.3	5.20	–	–	–
O=S(=O)(Cc1ccccc1F)N1CCc2ccccc2[C@H]1c1c[nH]c2ccccc12 [IBR104]	–	19.2	4.72	–	–	–
O=S(=O)(Cc1ccccc1C(F)(F)F)N1CCc2ccccc2[C@@H]1c1c[nH]c2ccccc12 [IBR109]	slightly lower	14.8	4.83	–	–	–
O=S(=O)(Cc1cccc(F)c1)N1CCc2ccccc2[C@H]1c1c[nH]c2ccccc12 [IBR106]	–	17.2	4.76	–	–	–
